Data: article PMC12671775 (PLOS Genetics, 2025)

Tests used:
[1] = biological target: T1, ChuaHNL (hydroxynitrile lyase, CHUA_005138) (Chamberlinius hualienensis, UniProt A0A0H5BR52); assay type: biochemical
T1 construct: N-terminal His-tagged, produced in Pichia pastoris

O=Cc1ccccc1 = test: purified protein

| Molecule | Km [1] [mM] | Km (O=Cc1ccccc1) [mM] |
| --- | --- | --- |
| N#CC(O)c1ccccc1 (racemic) [MAN, (R,S)-mandelonitrile] | 13.7 ± 2.35 | – |
| ChuaHNL (hydroxynitrile lyase, CHUA_005138) (Chamberlinius hualienensis) | – | 4.31 ± 0.771 |
